Experimental data published in US20250213563A1, “SUBSTITUTED PYRIMIDIN-4(3H)-ONES FOR USE IN TREATING CANCER” (NAVIRE PHARMA, INC., priority 2021, published 2025).
Where two headings read alike, the source gives them in different places.

How the values were obtained:
[1] = test system: NCI-H358; test: DUSP6 mRNA levels (qPCR); assay type: cell-based; conditions: Homo sapiens; NCI-H358, KRAS^G12C
Protocol: (§1) The potency of Compound (10b) in a panel of human tumor cell lines with active MAPK signaling was assessed. Cell viability in a 3D culture system was assessed by measuring CellTiter-Glo (CTG) luminescence following 8 days of treatment with nine concentrations of Compound (10b). MAPK pathway signaling was assessed by measuring pERK protein levels and DUSP6 mRNA levels by homogeneous time resolved fluorescence (HTRF) and quantitative polymerase chain reaction (qPCR), respectively. […] These viability effects correlated with pERK inhibition (Table 2, FIG. 6B) and DUSP6 inhibition (FIG. 6C).

[2] = test system: KYSE-520; test: DUSP6 mRNA levels (qPCR); assay type: cell-based; conditions: Homo sapiens; KYSE-520, EGFR^amp
Protocol: as §1

[3] = test system: NCI-H358 CDX model; test: Monotherapy anti-tumor activity, CDX model; assay type: in vivo, immunocompromised mice; conditions: 100 mg/kg daily orally, 21 to 33 days; KRAS^G12C
Protocol: (§2) In vivo efficacy studies were conducted to evaluate the monotherapy anti-tumor activity of Compound (10b) across a panel of cell line-derived xenograft (CDX) models. […] Significant anti-tumor efficacy was also observed in two CDX models with acquired resistance to EGFR inhibitors.

[4] = test system: MIA PaCa-2 CDX model; test: Monotherapy anti-tumor activity, CDX model; assay type: in vivo, immunocompromised mice; conditions: 100 mg/kg daily orally, 21 to 33 days; KRAS^G12C
Protocol: as §2

[5] = test system: HCC827-ER CDX model; test: Monotherapy anti-tumor activity, CDX model; assay type: in vivo, immunocompromised mice; conditions: 100 mg/kg daily orally, 21 to 33 days; MET^amp, resistant to EGFR inhibitor
Protocol: as §2

[6] = test system: KYSE-520 model; test: Monotherapy anti-tumor activity, CDX model; assay type: in vivo, immunocompromised mice; conditions: 100 mg/kg daily orally, 21 to 33 days; EGFR^amp
Protocol: as §2

[7] = test system: NCI-H1975-OR CDX model; test: Monotherapy anti-tumor activity, CDX model; assay type: in vivo, immunocompromised mice; conditions: 100 mg/kg daily orally, 21 to 33 days; EGFR^L858R, EGFR^T790M, EGFR^C797S
Protocol: as §2

[8] = test system: panel of 14 full-length human phosphatases; test: Eurofins Panlabs spectrofluorimetric phosphatase panel; assay type: biochemical; conditions: 10 μM
Protocol: The activity of Compound (10b) was also assessed against a panel of 14 full-length human phosphatases using spectrofluorimetric biochemical assays. These assays were conducted using the Eurofins Panlabs platform.

[9] = test system: KYSE-520 xenograft tumors; test: Pharmacodynamics in KYSE-520 xenograft tumors (DUSP6 / MPAS-plus mRNA); assay type: in vivo, NSG mice; conditions: for IC50: Mus musculus, KYSE-520, plasma concentration
Protocol: KYSE-520 (EGFRamp) cells were subcutaneously implanted in NSG mice and allowed to grow to an average tumor volume of 340 mm^3 as monitored by caliper measurements. At this point, animals were randomized and treated with vehicle, Compound (10b) 25 mg/kg or Compound (10b) 100 mg/kg PO. Plasma and tumor samples were harvested 4, 16 and 24 hours after a single dose. Compound (10b) plasma concentration and tumor pERK levels were determined. Data represent mean±SEM. N=4 mice per group.
In addition to DUSP6 mRNA levels, other MAPK pathway genes were examined through sequencing analysis. The MPAS (MAPK pathway activity score) signature is a signature of 10 genes that reflects MAPK pathway activity. This gene signature has been used in the clinic to evaluate the pharmacodynamic effect of the ERK inhibitor GDC-0994 in tumors. Based on the MPAS signature, a 13-gene signature (“MPAS-plus”) was developed, which includes the 10 MPAS genes and three additional MAPK-targeted genes (ETV1, EGR1 and FOSL1) that are modulated by SHP2 inhibitors across multiple cell line models (data not shown).

[10] = Phase 1/1B first-in-human study, safety and PK (Cohorts 1-5); assay type: in vivo; design: Cmax/D / AUC/D: unit not given beside the values; conditions: for AUC/D: calculated using AUClast; for AUC(0-t) / Cmax / Tmax / half-life: human, plasma
From the text: The initial results were from Cohorts 1-5 of the Phase 1/1B First-in-Human Study of Example 6.
No safety findings impacting the risk or benefit of compound (10b) reported in the 19 patients dosed. Nine (9) treatment-emergent serious adverse events (SAEs) were reported in 7 patients, none of which were deemed related to the treatment with compound (10b).

[11] = 250 mg QD, C1D1, N=2 (1 subject excluded)
[12] = oral, 80 mg, 80 mg QD, C1D1, N=1
[13] = oral, 80 mg, 80 mg QD, C2D1, N=1
[14] = oral, 150 mg, 150 mg QD, C1D1, N=3
[15] = oral, 150 mg, 150 mg QD, C2D1, N=3
[16] = oral, 250 mg, 250 mg QD, C1D1, N=2 (1 subject excluded)
[17] = oral, 250 mg, 250 mg QD, C2D1, N=1
[18] = oral, 400 mg, 400 mg QD, C1D1, N=5
[19] = oral, 400 mg, 400 mg QD, C2D1, N=3
[20] = oral, 550 mg, 550 mg QD, C1D1, N=6

Cc1c(N2CCC3(CC2)CO[C@@H](C)[C@H]3N)nc(C)n(-c2cccc(Cl)c2Cl)c1=O (atropisomer, axis not shown; (Ra)) [Compound (10b), 6-((3S,4S)-4-amino-3-methyl-2-oxa-8-azaspiro[4.5]decan-8-yl)-3-(Ra)-(2,3-dichlorophenyl)-2,5-dimethylpyrimidin-4(3H)-one]
IC50 [1]: 820 nM | IC50 [2]: 60 nM | mean tumor regression [3]: 50% | tumor growth inhibition (TGI) [4]: 74% | TGI [5]: 84% | TGI [6]: 77% | mean tumor regression [7]: 87% | inhibition of phosphatases [8]: No significant inhibition | suppression of DUSP6 mRNA levels in tumors ([9]; 25 mg/kg PO, 4-hour after a single dose): > 90% | suppression of DUSP6 mRNA levels in tumors ([9]; 25 mg/kg PO, 16-hour after a single dose): < 50% | suppression of DUSP6 mRNA levels in tumors ([9]; 25 mg/kg or 100 mg/kg PO, 24-hour after a single dose): neither treatment significantly suppressed | suppression of DUSP6 mRNA levels in tumors ([9]; 100 mg/kg PO, 4-hour after a single dose): > 90% | suppression of DUSP6 mRNA levels in tumors ([9]; 100 mg/kg PO, 16-hour after a single dose): > 50% | IC50 ([9]; PK/PD relationship, read-out: in vivo IC50): 1500 nM | IC50 ([9]; read-out: KYSE-520 xenograft DUSP6 IC50): 0.656 µg/mL | Cmax ([9]; prediction used as reference line for human plasma levels, read-out: predicted efficacious Cmax): 5.3 µM | suppression of the MPAS-plus signature in the tumor ([9]; single oral dose or five doses, 25 mg/kg or 100 mg/kg): dose- and time-dependent suppression | Cmax/D ([10]; 80 mg QD, C1D1, N=1): 5.06 | AUC/D ([10]; 80 mg QD, C1D1, N=1): 61.1 | P/T Ratio ([10]; 80 mg QD, C2D1, N=1): 6.82 | Cmax/D ([10]; 150 mg QD, C1D1, N=3): 4.34 | AUC/D ([10]; 150 mg QD, C1D1, N=3): 64.3 | P/T Ratio ([10]; 150 mg QD, C2D1, N=3): 3.19 | Cmax/D [10, 11]: 3.19 | AUC/D [10, 11]: 42.4 | P/T Ratio ([10]; 250 mg QD, C2D1, N=1): 2.81 | Cmax/D ([10]; 400 mg QD, C1D1, N=5): 3.85 | AUC/D ([10]; 400 mg QD, C1D1, N=5): 47.0 | P/T Ratio ([10]; 400 mg QD, C2D1, N=3): 3.42 | Cmax/D ([10]; 550 mg QD, C1D1, N=6): 4.63 | AUC/D ([10]; 550 mg QD, C1D1, N=6): 68.6 | Number of patients (n = 19) with TEAE: Constipation ([10]; Cohorts 1-5): 1 | Number of patients (n = 19) with TEAE: Diarrhea ([10]; Cohorts 1-5): 5 | Number of patients (n = 19) with TEAE: Edema ([10]; Cohorts 1-5): 4 | Number of patients (n = 19) with TEAE: LFT increases ([10]; Cohorts 1-5): 2 | Number of patients (n = 19) with TEAE: LVEF decrease ([10]; Cohorts 1-5): 1 | Number of patients (n = 19) with TEAE: Nausea/vomiting ([10]; Cohorts 1-5): 4 | Number of patients (n = 19) with TEAE: Rash ([10]; Cohorts 1-5): 2 | adverse events leading to study discontinuation ([10]; Cohorts 1-5): No adverse events (AEs) led to study discontinuation | dose-limiting toxicity (DLTs) ([10]; Cohorts 1-5): no dose-limiting toxicity and None | number of patients with treatment-emergent SAEs ([10]; Cohorts 1-5, 19 patients dosed): 7 | number of treatment-emergent serious adverse events (SAEs) ([10]; Cohorts 1-5, 19 patients dosed): 9 | treatment-emergent SAEs deemed related to the treatment ([10]; Cohorts 1-5, 19 patients dosed): none | tolerability ([10]; Cohorts 1-5: 80, 150, 250, 400, 550 mg once daily, 19 patients): well tolerated | AUC(0-t) [10, 12]: 4890 ng·h/mL | Cmax [10, 12]: 405 ng/mL | Tmax [10, 12]: 2 h | AUC(0-t) [10, 13]: 6290 ng·h/mL | Cmax [10, 13]: 622 ng/mL | Tmax [10, 13]: 1 h | half-life ([10]; oral, 80 mg, 80 mg QD, C2D1, N=1, read-out: t1/2 (converted)): 10 h | AUC(0-t) [10, 14]: 9650 ng·h/mL | Cmax [10, 14]: 651 ng/mL | Tmax [10, 14]: 2 h | half-life ([10]; oral, 150 mg, 150 mg QD, C2D1, N = 1, read-out: t1/2 (converted)): 10.1 h | AUC(0-t) [10, 15]: 18200 ng·h/mL | Cmax [10, 15]: 1120 ng/mL | Tmax [10, 15]: 3.33 h | half-life ([10]; oral, 250 mg, 250 mg QD, C1D1, N = 1, read-out: t1/2 (converted)): 9.44 h | AUC(0-t) [10, 16]: 10600 ng·h/mL | Tmax [10, 16]: 3 h | Cmax ([10]; oral, 250 mg, 250 mg QD, C1D1, N=2 (1 subject with active gastritis excluded)): 797 ng/mL | AUC(0-t) [10, 17]: 21600 ng·h/mL | Cmax [10, 17]: 1380 ng/mL | Tmax [10, 17]: 2 h | half-life ([10]; oral, 400 mg, 400 mg QD, C1D1, N = 1, read-out: t1/2 (converted)): 10.1 h | AUC(0-t) [10, 18]: 18800 ng·h/mL | Cmax [10, 18]: 1540 ng/mL | Tmax [10, 18]: 3 h | half-life ([10]; oral, 400 mg, 400 mg QD, C2D1, N = 1, in parentheses: interpret with caution (large extrapolated AUC), read-out: t1/2 (converted)): 12.3 h | AUC(0-t) [10, 19]: 32000 ng·h/mL | Cmax [10, 19]: 2270 ng/mL | Tmax [10, 19]: 3 h | AUC(0-t) [10, 20]: 37700 ng·h/mL | Cmax [10, 20]: 2550 ng/mL | Tmax [10, 20]: 2.67 h | half-life ([10]; oral, read-out: Human Half life): 10 to 16 h | half-life ([10]; po, 80 mg, 80 mg QD, C1D1, N=1, in parentheses: interpret with caution (large extrapolated AUC), read-out: t1/2 (converted)): 14.9 h | half-life ([10]; po, 150 mg, 150 mg QD, C1D1, N=3, in parentheses: interpret with caution (large extrapolated AUC), read-out: t1/2 (converted)): 15.6 h | half-life ([10]; po, 550 mg, 550 mg QD, C1D1, N=6, in parentheses: interpret with caution (large extrapolated AUC), read-out: t1/2 (converted)): 13.5 h
